In patent US9265771B2, “Method for treating Lyme disease” (Zoetis Services LLC, priority 2012, dated 2016):
“And” between values parts separate entries of the source, which are not always exact repeats. Equal values may be shown once.

Columns and labels:
Type in all cases: in vivo, beagle dogs
B. burgdorferi [1] = test: Study B: QC6 ELISA in tick-infected dogs; details: 8 dogs/group
Text: (§1) Three outer surface proteins (Osp) on B. burgdorferi are important for diagnosis and prevention, and are expressed by the organism in response to its local environment. […] OspF is another surface protein that is generally observed in late-stage disease. The C in […] refers to a 25-amino acid, C6 peptide in the sixth invariable region of an outer membrane lipoprotein (VIsE). Antibody against C6 is highly accurate as a serologic diagnosis of Lyme disease independent of a subject's (e.g., canine) vaccination status. Further, the generation of C6 antibodies implies an active infection with viable spirochetes. Serological methods for detecting B. burgdorfer/Lyme disease were conducted using the IDEXX qualitative SNAP-4Dx ELISA and the Quantitative C6 (Quant C6 or QC6) diagnostic kits, which are enzyme linked immunosorbent assays against the previously described 25-amino-acid C6 peptide. QC6 ELISA data, units/mL, are useful for guidance in initiating and evaluating response to therapy (See Levy S A, O'Connor T P, Hanscom J L, Shields P, et al. Quantitative measurement of a C6 antibody following antibiotic treatment of Borrelia burgdorferi antibody-positive, nonclinical dogs. Clin Vacc Immunol 2008; 15(1):115-119 and Littman M P, Goldstein R E, Labato M A, et al. ACVIM Small Animal Concensus Statement on Lyme Disease in Dogs: Diagnosis, Treatment and Prevention. J Vet Intern Med 2006; 20: 422-434).
(§2) Thirty-two (18 male and 14 female) beagle dogs were sero-negative for Borrelia burgdorferi, not vaccinated with any Borrelia spp vaccines, and acclimated at the study facility for seven days. The study was conducted under National Research Council guidelines (1996). […] Field-caught Ixodes from the northeast USA were placed on the dogs without containment chambers for 10 days; after ticks fed to repletion, dogs were treated with two applications of an approved topical acaricide with a 30-day interval between applications.
(§3) Forty days post-challenge, and prior to antibiotic treatments, blood was collected from each dog as were two skin biopsy punch samples near tick attachment sites. Blood was collected approximately monthly post-treatment. Skin biopsies were taken near the tick attachment site on Days 48/49, 118, 146, 180, and 315. Serum antibodies to Borrelia were assayed using the IDEXX SNAP-4Dx and QC6 ELISA. In cooperation with Cornell University, serum samples were analyzed using fluorescent-bead-based multiplex assays detecting antibodies against B. burgdorferi outer surface proteins OspA, OspC, and OspF. Data were expressed as median fluorescent intensities (MFI), and shown to be specific and sensitive to provide interpretative guidelines regarding infection. The skin biopsies were collected for a polymerase chain reaction (PCR; FlaB) assay and cultured for spirochete detection. At the end of the study, blood and skin biopsies were collected and synovial tissue from the joints were harvested at necropsy.
(§4) On Day 75 and Day 89 Convenia was administered to the eight dogs in T04 (8 mg/kg bodyweight; subcutaneous injection). The other treated groups received their respective regimens daily and orally for 30 days from Days 75 to 104. […] Dogs in T01 served as infected, untreated, controls. Inter-treatment comparisons to evaluate antibiotic efficacy included clinical signs, serology, culture results and pathology.

[2] = tested on: B. burgdorferi outer surface protein OspC; test: Study B: fluorescent-bead-based multiplex assay, antibodies against OspC; details: Day 281
Method: as §2
as §3, with “At the end of the study, blood and skin biopsies were collected and synovial tissue from the joints were harvested at necropsy.” left out

B. burgdorferi [3] = test: Study B: microscopic examination of joints and skin at necropsy; details: for Number of Joints with Changes as Described for Lyme disease: N = 8
Method: as §2, §3, §4
At necropsy ten joints were harvested per each dog, formalin-fixed, stained and examined microscopically. Joints included the carpus, elbow, shoulder, stifle and tarsus on both the right and left limbs. Further, a section of skin near tick attachment sites was evaluated from each dog. There were two dogs in the Convenia group (25%) with tissues showing changes as described for Lyme disease, compared to seven controls (87.5%) and three (37.5%) to four (50.0%) dogs in the other antibiotic-treated groups (Table 7). […] The Convenia group had the lowest incidence of joint changes with six affected of 80.

[4] = tested on: B. burgdorferi outer surface protein OspF; test: Study B: fluorescent-bead-based multiplex assay, antibodies against OspF; details: for Multiplex Assay OspF: No. Dogs > Positive Threshold (# dogs > 1500): 8 dogs/group
Method: as §2
as §3, with “Data were expressed as median fluorescent intensities (MFI), and shown to be specific and sensitive to provide interpretative guidelines regarding infection.” left out
On Day 75 and Day 89 Convenia was administered to the eight dogs in T04 (8 mg/kg bodyweight; subcutaneous injection). The other treated groups received their respective regimens daily and orally for 30 days from Days 75 to 104. […] Dogs in T01 served as infected, untreated, controls.

B. burgdorferi [5] = test: Study B: SNAP-4Dx ELISA in tick-infected dogs; details: for SNAP-4Dx Positives, Number of Dogs: N = 8/group
Text: as §1, §2, §3, §4

[6] = joints, skin, 8 dogs/group, necropsy

Compound: CC1(C)S[C@@H]2[C@H](NC(=O)[C@H](N)c3ccc(O)cc3)C(=O)N2[C@H]1C(=O)O [amoxicillin]
- Dogs Sero-converted to B. burgdorferi per QC6 ELISA (≧30 U/mL), (%) (B. burgdorferi [1]; Day 48 (pre-treatment)): 100.0%
- Number of Dogs Sero-converted to B. burgdorferi per QC6 ELISA (≧30 U/mL), No. (B. burgdorferi [1]; Day 48 (pre-treatment)): 8
- Dogs Sero-converted to B. burgdorferi per QC6 ELISA (≧30 U/mL), (%) (B. burgdorferi [1]; Day 111): 75.0%
- Number of Dogs Sero-converted to B. burgdorferi per QC6 ELISA (≧30 U/mL), No. (B. burgdorferi [1]; Day 111): 6
- Dogs Sero-converted to B. burgdorferi per QC6 ELISA (≧30 U/mL), (%) (B. burgdorferi [1]; Day 145): 0.0%
- Number of Dogs Sero-converted to B. burgdorferi per QC6 ELISA (≧30 U/mL), No. (B. burgdorferi [1]; Day 145): 0
- Dogs Sero-converted to B. burgdorferi per QC6 ELISA (≧30 U/mL), (%) (B. burgdorferi [1]; Day 179): 0.0%
- Number of Dogs Sero-converted to B. burgdorferi per QC6 ELISA (≧30 U/mL), No. (B. burgdorferi [1]; Day 179): 0
- Dogs Sero-converted to B. burgdorferi per QC6 ELISA (≧30 U/mL), (%) (B. burgdorferi [1]; Day 221): 0.0%
- Number of Dogs Sero-converted to B. burgdorferi per QC6 ELISA (≧30 U/mL), No. (B. burgdorferi [1]; Day 221): 0
- Dogs Sero-converted to B. burgdorferi per QC6 ELISA (≧30 U/mL), (%) (B. burgdorferi [1]; Day 251): 0.0%
- Number of Dogs Sero-converted to B. burgdorferi per QC6 ELISA (≧30 U/mL), No. (B. burgdorferi [1]; Day 251): 0
- Dogs Sero-converted to B. burgdorferi per QC6 ELISA (≧30 U/mL), (%) (B. burgdorferi [1]; Day 281): 0.0%
- Number of Dogs Sero-converted to B. burgdorferi per QC6 ELISA (≧30 U/mL), No. (B. burgdorferi [1]; Day 281): 0
- Dogs Sero-converted to B. burgdorferi per QC6 ELISA (≧30 U/mL), (%) (B. burgdorferi [1]; Day 314): 0.0%
- Number of Dogs Sero-converted to B. burgdorferi per QC6 ELISA (≧30 U/mL), No. (B. burgdorferi [1]; Day 314): 0
- Number of dogs above infected threshold (antibody-OspC) [2]: one
- Number of Joints with Changes as Described for Lyme disease, Cumulative (B. burgdorferi [3]; 80 total/group): 12
- Number of Joints with Changes as Described for Lyme disease (B. burgdorferi [3]; Carpus L): 2
- Number of Joints with Changes as Described for Lyme disease (B. burgdorferi [3]; Carpus R): 2
- Number of Joints with Changes as Described for Lyme disease (B. burgdorferi [3]; Elbow L): 1
- Number of Joints with Changes as Described for Lyme disease (B. burgdorferi [3]; Elbow R): 1
- Number of Joints with Changes as Described for Lyme disease (B. burgdorferi [3]; Shoulder L): 0
- Number of Joints with Changes as Described for Lyme disease (B. burgdorferi [3]; Shoulder R): 1
- Number of Joints with Changes as Described for Lyme disease (B. burgdorferi [3]; Stifle L): 1
- Number of Joints with Changes as Described for Lyme disease (B. burgdorferi [3]; Stifle R): 2
- Number of Joints with Changes as Described for Lyme disease (B. burgdorferi [3]; Tarsus L): 1
- Number of Joints with Changes as Described for Lyme disease (B. burgdorferi [3]; Tarsus R): 1
- No Tissue Changes, # Dogs (B. burgdorferi [3]; [6]): 4
- No Tissue Changes, % (B. burgdorferi [3]; [6]): 50%
- Tissue Changes Described for Lyme Disease, # Dogs (B. burgdorferi [3]; [6]): 4
- Tissue Changes Described for Lyme Disease, % (B. burgdorferi [3]; [6]): 50%
- Multiplex Assay OspF: MFI Mean ([4]; Day 48 (pre-treatment)): 1083.75 MFI
- Multiplex Assay OspF: No. Dogs > Positive Threshold (# dogs > 1500) ([4]; Day 48 (pre-treatment)): 2
- Multiplex Assay OspF: No. Dogs > Positive Threshold (# dogs > 1500) ([4]; Day 111): three and 3
- Multiplex Assay OspF: MFI Mean ([4]; Day 145): 458.13 MFI
- Multiplex Assay OspF: No. Dogs > Positive Threshold (# dogs > 1500) ([4]; Day 145): 0
- Multiplex Assay OspF: MFI Mean ([4]; Day 179): 327.88 MFI
- Multiplex Assay OspF: No. Dogs > Positive Threshold (# dogs > 1500) ([4]; Day 179): 0
- Multiplex Assay OspF: MFI Mean ([4]; Day 221): 269.63 MFI
- Multiplex Assay OspF: No. Dogs > Positive Threshold (# dogs > 1500) ([4]; Day 221): 0
- Multiplex Assay OspF: MFI Mean ([4]; Day 251): 288.63 MFI
- Multiplex Assay OspF: No. Dogs > Positive Threshold (# dogs > 1500) ([4]; Day 251): 0
- Multiplex Assay OspF: MFI Mean ([4]; Day 281): 288.88 MFI
- Multiplex Assay OspF: No. Dogs > Positive Threshold (# dogs > 1500) ([4]; Day 281): 0
- Multiplex Assay OspF: MFI Mean ([4]; Day 314): 278.25 MFI
- Multiplex Assay OspF: No. Dogs > Positive Threshold (# dogs > 1500) ([4]; Day 314): 0
- Multiplex Assay OspF: MFI Mean ([4]; Day −15 (pre-infection)): 133.38 MFI
- Multiplex Assay OspF: No. Dogs > Positive Threshold (# dogs > 1500) ([4]; Day −15 (pre-infection)): 0
- Antibody-OspF status of dogs ([4]; after Day 111): all dogs negative thereafter
- SNAP-4Dx Positives, Number of Dogs (B. burgdorferi [5]; Day 48 (pre-treatment; antibiotics from Day 75)): 5
- SNAP-4Dx Positives, Number of Dogs (B. burgdorferi [5]; Day 111): 7
- SNAP-4Dx Positives, Number of Dogs (B. burgdorferi [5]; Day 145): 3
- SNAP-4Dx Positives, Number of Dogs (B. burgdorferi [5]; Day 179): 2
- SNAP-4Dx Positives, Number of Dogs (B. burgdorferi [5]; Day 221): 0
- SNAP-4Dx Positives, Number of Dogs (B. burgdorferi [5]; Day 251): 0
- SNAP-4Dx Positives, Number of Dogs (B. burgdorferi [5]; Day 281): 0
- SNAP-4Dx Positives, Number of Dogs (B. burgdorferi [5]; Day 315): 0
- SNAP-4Dx Positives, Number of Dogs (B. burgdorferi [5]; Day −15 (pre-infection)): 0
- SNAP-4Dx positive dogs (B. burgdorferi [5]; rest of the study after Day 179): none positive
